Measurements reported in patent publication US11065269B1, “Method of using astaxanthin for the treatment of diseases, and more particularly, the treatment of cancer” (priority 2018, dated 2021).

Assays:
[1] = relative to betacarotene; cited from earlier work
[2] = cited from earlier work
[3] = increasing astaxanthin levels in the diet (experiments conducted with the invention); format: in vivo
Protocol: In experiments conducted with the present invention, it is been shown that increasing astaxanthin levels in the diet can be used as a pre-cancer, cancer and anti-inflammatory prophylactic at levels up to 400 mg per day.

[4] = oral; cited from earlier work

Structure (SMILES): CC1=C(/C=C/C(C)=C/C=C/C(C)=C/C=C/C=C(C)/C=C/C=C(C)/C=C/C2=C(C)C(=O)[C@@H](O)CC2(C)C)C(C)(C)C[C@H](O)C1=O [astaxanthin]
- times more reactive as an antioxidant than betacarotene [1]: 400 times
- singlet oxygen quenching, times stronger than CoQ10 ([2]; relative to CoQ10): 800 times
- singlet oxygen quenching, times stronger than vitamin C ([2]; relative to vitamin C): 6000 times
- singlet oxygen quenching, times stronger than vitamin E ([2]; relative to vitamin E): 550 times
- side effects ([3]; dietary levels up to 400 mg per day): No discernible side effects
- side effects or skin color changes ([3]; treatment of greater than 50 mg per day): No side effects or skin color changes were observed
- feces colour ([3]; up to 400 mg per day, from unabsorbed astaxanthin): some decolorization of feces
- anti-inflammatory effect and pain reduction associated with arthritis ([3]; within four weeks of treatment of greater than 50 mg per day): Anti-inflammatory and pain reduction associated with arthritis were noted
- toxic side effects [4]: No toxic side effects have been observed
